Measured values from US7332568B2, “Q3 SPARC deletion mutant and uses thereof” (Abraxis BioScience, Inc., priority 2005, dated 2008).

Tested on: gp60-mediated caveolar transcytosis
Test: Inhibition of transport of paclitaxel from ABX across endothelial monolayers
Format: cell-based, human
From the text: Transport was dependent on albumin.

Compound | effect on transport of paclitaxel from ABX across endothelial monolayers
CCN1C(=O)C=CC1=O [NEM] | inhibited
β-methyl cyclodextrin [BMC] | inhibited
